{
  "source": "patent US20050058696A1",
  "about": "“Methods and compositions for the treatment of pain and other alpha 2 adrenergic-mediated conditions” (Allergan, Inc., priority 2003, published 2005)",
  "key": {"[1]": {"system": "sulprostone-induced allodynic mice", "assay": "Sulprostone-induced allodynia mouse model, paint brush stimulation pain score"}, "[2]": {"system": "intraocular pressure of male New Zealand rabbits", "assay": "Normotensive intraocular pressure in rabbits after topical instillation (pneumatonometer)", "assay_type": "in vivo, rabbit", "protocol": "Male New Zealand rabbits are used to evaluate drug effects on normotensive IOP measurements. The rabbits are carefully handled so as to minimize excitement. They should be picked up by the nape of the neck, with their hindlegs supported by the other hand. After removing the rabbit from its cage, approximately 25 ul of dilute OphtheticR (0.05%) topical anesthesia is administered to each eye. An initial IOP determination is made in both eyes. Rabbits with 3 mmHg or greater difference in IOP between right and left eyes are replaced at this time.\nImmediately following the time zero (T=0) reading in both eyes, one eye of each experimental rabbit is instilled with an ophthalmic formulation of 0.1% (w/w) brimonidine tartrate onto the cornea of the randomly selected test eye. […] The other eye is given the vehicle containing no drug. The ophthalmic formulations comprise 50 ppm Purite®(stabilized chlorine dioxide), 0.5% carboxymethylcellulose, 0.6% (w/w) borate buffer (pH 7.7) and small amounts of salts (NaCl, KCl, CaCl2, MgCl2). Intraocular pressure of both treated (ipsalateral)and untreated (contralateral) eyes is measured at the indicated time intervals for seven hours. Pressure readings utilize a Model 30 Classic™ Pneumatonometer as the measuring and recording instrument. It measures intraocular pressure (IOP) non-invasively through applanation tonometry."}, "[3]": {"system": "Chung model of allodynic rats", "settings": "for analgesia (reversal of tactile allodynia): 30 minutes after administration", "text": "A model for chronic pain (in particular peripheral neuropathy) involves the surgical ligation of the L5 (and optionally the L6) spinal nerves on one side in experimental animals. Rats recovering from the surgery gain weight and display a level of general activity similar to that of normal rats. However, these rats develop abnormalities of the foot, wherein the hindpaw is moderately everted and the toes are held together. More importantly, the hindpaw on the side affected by the surgery appears to become sensitive to pain from low-threshold mechanical stimuli, such as that producing a faint sensation of touch in a human, within about 1 week following surgery. This sensitivity to normally non-painful touch is called “tactile allodynia” and lasts for at least two months. The response includes lifting the affected hindpaw to escape from the stimulus, licking the paw and holding it in the air for many seconds. None of these responses is normally seen in the control group.\nRats are anesthetized before surgery. The surgical site is shaved and prepared either with betadine or novacaine. Incision is made from the thoracic vertebra X111 down toward the sacrum. Muscle tissue is separated from the spinal vertebra (left side) at the L4-S2 levels. The L6 vertebra is located and the transverse process is carefully removed with a small rongeur to expose the L4-L6 spinal nerves. The L5 and L6 spinal nerves are isolated and tightly ligated with 6-0 silk thread. The same procedure is done on the right side as a control, except no ligation of the spinal nerves is performed.\nA complete hemostasis is confirmed, then the wounds are sutured. A small amount of antibiotic ointment is applied to the incised area, and the rat is transferred to the recovery plastic cage under a regulated heat-temperature lamp. […]\nIn the Chung rat model, tactile allodynia is measured prior to and 30 minutes after drug administration using von Frey hairs that are a series of fine hairs with incremental differences in stiffness. […]"}, "male Sprague-Dawley rats": {"system": "male Sprague-Dawley rats", "settings": "for sedation: graded 30 minutes after administration", "protocol": "To test sedation, six male Sprague-Dawley rats are given various doses of a clonidine intrathecal injection. Sedation is graded 30 minutes following administration of the drug by monitoring locomotor skills as follows. Rats are placed in a dark covered chamber and a digicom analyzer (Omnitech Electronic) quantitates their exploratory behavior for a five-minute period. The machine records each time the rat interrupts an array of 32 photoelectric beams in the X and Y orientation, and quantifies the difference in behavior as compared to control animals given saline instead of clonidine."}},
  "note": "Read-outs that look alike come from different tables or passages of the source.",
  "data": [
    {"smiles": "CN(C)CCC=C1c2ccccc2CCc2ccccc21", "note": "[amitriplylene, amitriptylene]", "values": [
      {"measurement": "reduction in the dosage necessary to achieve maximal analgesia", "setting": "[1]; amitriptylene intrathecal with 30 ug/kg IP 5-methylurapadil versus with saline", "value": "approximately three"}
    ]},
    {"smiles": "Brc1c(NC2=NCCN2)ccc2nccnc12", "note": "[brimonidine]", "values": [
      {"measurement": "intraocular pressure", "setting": "[2]; 0.1% brimonidine alone (FIG. 4B)", "value": "pronounced increase in intraocular pressure within the first 30 minutes, followed by a lowering of intraocular pressure thereafter"},
      {"measurement": "intraocular pressure, difference from brimonidine alone", "setting": "[2]; 0.1% brimonidine and 0.001% prazosin (FIG. 4C)", "value": "Little difference"},
      {"measurement": "initial intraocular pressure", "setting": "[2]; 0.1% brimonidine and 0.003% prazosine (FIG. 4D)", "value": "only a very small increase in initial intraocular pressure"}
    ]},
    {"smiles": "Clc1cccc(Cl)c1N=C1NCCN1", "note": "[clonidine]", "values": [
      {"measurement": "analgesia (reversal of tactile allodynia)", "setting": "[3]; intrathecal dose of 0.1 μg", "value": "no analgesia"},
      {"measurement": "analgesia (reversal of tactile allodynia)", "setting": "[3]; intrathecal dose of 1.0 μg", "value": "maximal analgesia"},
      {"measurement": "analgesic activity, dose-dependent", "setting": "[3]; rats, intrathecal", "value": "analgesic"},
      {"measurement": "sedation", "setting": "male Sprague-Dawley rats; intrathecal dose of 3.0 μg", "value": "mildly sedating"},
      {"measurement": "sedation", "setting": "male Sprague-Dawley rats; intrathecal dose of 10 μg", "value": "maximal sedation"},
      {"measurement": "separation between analgesia and sedation", "setting": "male Sprague-Dawley rats; rats, intrathecal clonidine alone", "value": "3-10 fold"},
      {"measurement": "shift of the effective analgesic dose lower versus clonidine alone", "setting": "[1]; 5-methyl urapidil 30 μg/kg intraperitoneal 5 minutes before clonidine", "value": 10, "unit": "fold"},
      {"measurement": "pain score", "setting": "[1]; clonidine 0.03 microgram intrathecal, prazosin given 15 minutes before", "value": "13.3±0.9"},
      {"measurement": "analgesia", "setting": "[1]; clonidine 0.1 microgram intrathecal in the absence of prazosin", "value": "not analgesic"},
      {"measurement": "pain score", "setting": "[1]; clonidine 0.1 microgram intrathecal, prazosin given 15 minutes before", "value": "4.8±0.8"},
      {"measurement": "pain score", "setting": "[1]; clonidine 0.4 microgram intrathecal, prazosin given 15 minutes before", "value": "4.8±0.6"},
      {"measurement": "analgesia compared with intraperitoneal injection of the alpha 1 antagonist", "setting": "[1]; clonidine (various doses) and 5-methylurapidil 1 microgram coadministered intrathecally", "value": "substantially similar"},
      {"measurement": "therapeutic window between pain and sedation", "setting": "[1]; clonidine alone", "value": "3-10 fold"},
      {"measurement": "therapeutic window between pain and sedation", "setting": "[1]; clonidine co-administered with alpha 1 antagonist (5-methyl urapidil 30 μg/kg i.p.)", "value": "30-100 fold"},
      {"measurement": "decrease in the EC50 for clonidine analgesia versus i.t. clonidine alone", "setting": "[1]; coadministration of prazosin 100 ng/kg i.p.", "value": "four"},
      {"measurement": "analgesic activity, dose-dependent", "setting": "[1]; mice, intrathecal", "value": "analgesic"}
    ]},
    {"smiles": "COc1cc2nc(N3CCN(C(=O)c4ccco4)CC3)nc(N)c2cc1OC", "note": "[prazosin]", "values": [
      {"measurement": "intraocular pressure of treated eye compared to untreated eye", "setting": "[2]; 35 microliters 0.003% prazosin alone (FIG. 4A)", "value": "small initial drop in intraocular pressure compared to the untreated eye, followed by a gradual increase in pressure"}
    ]},
    {"smiles": "CS(=O)(=O)NC(=O)CCC/C=C\\C[C@H]1C(=O)C[C@@H](O)[C@@H]1/C=C/[C@@H](O)COc1ccccc1", "note": "[sulprostone]", "values": [
      {"measurement": "pain score", "setting": "[1]; sulprostone 200 ng intrathecal alone, 16-point scale", "value": "12-13"}
    ]}
  ]
}
